The assay addresses T1, N-type calcium channel (NTCC) (Homo sapiens, UniProt Q00975).
T1 construct: endogenous in cells; host or cells: differentiated IMR32 cells (ATCC)
Nature of the assay: FLIPR calcium mobilization (and/or electrophysiological) assay for N-type calcium channel. The class given is cell-based. As to conditions: calcium mobilization and/or electrophysiological in vitro assay; differentiated IMR32 cells, 90 mM KCl, 5 μM nitrendipine. How it is done: Unless noted otherwise, cell culture reagents were purchased from Life Technologies of Rockville, Md. IMR32 cells (American Type Culture Collection, ATCC, Manassas, Va.) were routinely cultured in growth medium consisting of minimum essential medium containing 10% fetal bovine serum (FBS, Hyclone, Logan, Utah), 100 U/mL penicillin, 100 μg/mL streptomycin, 2 mM L-glutamine, 1 mM sodium pyruvate, and 1×MEM non-essential amino acids. 80-90% confluent flasks of cells were differentiated using the following differentiation medium: Growth medium plus 1 mM dibutyryl cyclic AMP (Sigma, St. Louis, Mo.), and 2.5 μM bromodeoxyuridine (Sigma). Cells were differentiated for 8 days by replacing differentiation medium every 2-3 days.
One day prior to performing this assay, differentiated IMR32 cells were treated with 1× CellStripper, and seeded on poly-D-lysine-coated 96-well clear-bottom black plates (Becton Dickinson, Franklin Lakes, N.J.) at 200,000 cells/well. On the day of the assay, the cell plates were washed with IMR32 buffer (127 mM NaCl, 1 mM KCl, 2 mM MgCl2, 700 μM NaH2PO4, 5 mM CaCl2, 5 mM NaHCO3, 8 mM HEPES, 10 mM glucose, pH 7.4), then pre-stimulated with KCl and loaded as follows: 0.05 mL of IMR32 buffer, 0.05 mL of each compound tested diluted in IMR32 buffer containing 20 μM nitrendipine (Sigma), and 0.1 mL KCl dissolved in IMR32 buffer, plus Fluo-4 were added (3 μM final concentration, Molecular Probes, Eugene, Oreg.). Final test compound concentrations ranged from about 846 pM to about 17 μM, final nitrendipine concentration was 5 μM, and final KCl concentration was 90 mM. After 1 hour, the cells were washed twice with 0.05 mL of each compound tested in nitrendipine-containing IMR32 buffer (no KCl or Fluo-4), and then replaced with 0.1 mL of each compound tested in nitrendipine-containing IMR32 buffer. Plates were then transferred to a Fluorimetric Imaging Plate Reader (FLIPR^96, Molecular Devices, Inc., Sunnyvale, Calif.) for assay. The FLIPR measured basal Fluo-4 fluorescence for 315 seconds (i.e., 5 minutes and 15 seconds), then added 0.1 mL KCl agonist dissolved in IMR32 buffer and measured fluorescence for another 45 seconds. Final test compound concentrations on the cells after FLIPR read ranged from about 846 pM to about 17 μM, final nitrendipine concentration was 5 μM, and final KCl concentration was 90 mM. Data were collected over the entire time course and analyzed using Excel, Graph Pad Prism (version 3.02, Graph Pad, San Diego, Calif.), or Activity Base (version 5.1, IDBS, Parsippany, N.J.) software.
N-type calcium channel expressing HEK-293 cells were created in two stages. Stage 1 was created as follows. The rat α1b, and β3 cDNA expression constructs (2.5 μg each) were co-transfected into human embryonic kidney (HEK-293) cells by Lipofectamine Plus reagent (Invitrogen), as per manufacturer's instructions. 24 hours later, cells were split in limiting dilution into multiple 96-well plates in selection media containing 20 μg/mL blasticidin and 500 μg/mL geneticin, and incubated for 3 weeks at 37° C., 5% CO2, 95% humidity. Plates containing ≦1 clone per well were cultured until wells positive for single clones were confluent. Individual clones were then arrayed into columns of a destination 96-well plate, and partly split into 6-well plates for culture maintenance. Array plates were washed once with IMR32 buffer and cells loaded for 1 hour with 0.1 mL of IMR32 buffer containing Fluo-4 (3 μM final concentration, Molecular Probes). Then they were washed twice with 0.1 mL of IMR32 buffer, and replaced with 0.1 mL IMR32 buffer. Plates were then transferred to a FLIPR^96 for assay. The FLIPR measured basal Fluo-4 fluorescence for 315 seconds, then added 0.1 mL KCl agonist dissolved in IMR32 buffer and measured fluorescence for another 45 seconds. Final KCl concentration was 90 mM. Data were collected over the entire time course and analyzed using Excel, Graph Pad Prism, or Activity Base software. […]
In general terms: Calcium assays in cells follow changes in intracellular calcium, usually with a dye or a luminescent sensor.

pIC50: −log10 of the molar value. Counter-ions that a name gives are not always drawn.

T1 sequence (Q00975 whole entry): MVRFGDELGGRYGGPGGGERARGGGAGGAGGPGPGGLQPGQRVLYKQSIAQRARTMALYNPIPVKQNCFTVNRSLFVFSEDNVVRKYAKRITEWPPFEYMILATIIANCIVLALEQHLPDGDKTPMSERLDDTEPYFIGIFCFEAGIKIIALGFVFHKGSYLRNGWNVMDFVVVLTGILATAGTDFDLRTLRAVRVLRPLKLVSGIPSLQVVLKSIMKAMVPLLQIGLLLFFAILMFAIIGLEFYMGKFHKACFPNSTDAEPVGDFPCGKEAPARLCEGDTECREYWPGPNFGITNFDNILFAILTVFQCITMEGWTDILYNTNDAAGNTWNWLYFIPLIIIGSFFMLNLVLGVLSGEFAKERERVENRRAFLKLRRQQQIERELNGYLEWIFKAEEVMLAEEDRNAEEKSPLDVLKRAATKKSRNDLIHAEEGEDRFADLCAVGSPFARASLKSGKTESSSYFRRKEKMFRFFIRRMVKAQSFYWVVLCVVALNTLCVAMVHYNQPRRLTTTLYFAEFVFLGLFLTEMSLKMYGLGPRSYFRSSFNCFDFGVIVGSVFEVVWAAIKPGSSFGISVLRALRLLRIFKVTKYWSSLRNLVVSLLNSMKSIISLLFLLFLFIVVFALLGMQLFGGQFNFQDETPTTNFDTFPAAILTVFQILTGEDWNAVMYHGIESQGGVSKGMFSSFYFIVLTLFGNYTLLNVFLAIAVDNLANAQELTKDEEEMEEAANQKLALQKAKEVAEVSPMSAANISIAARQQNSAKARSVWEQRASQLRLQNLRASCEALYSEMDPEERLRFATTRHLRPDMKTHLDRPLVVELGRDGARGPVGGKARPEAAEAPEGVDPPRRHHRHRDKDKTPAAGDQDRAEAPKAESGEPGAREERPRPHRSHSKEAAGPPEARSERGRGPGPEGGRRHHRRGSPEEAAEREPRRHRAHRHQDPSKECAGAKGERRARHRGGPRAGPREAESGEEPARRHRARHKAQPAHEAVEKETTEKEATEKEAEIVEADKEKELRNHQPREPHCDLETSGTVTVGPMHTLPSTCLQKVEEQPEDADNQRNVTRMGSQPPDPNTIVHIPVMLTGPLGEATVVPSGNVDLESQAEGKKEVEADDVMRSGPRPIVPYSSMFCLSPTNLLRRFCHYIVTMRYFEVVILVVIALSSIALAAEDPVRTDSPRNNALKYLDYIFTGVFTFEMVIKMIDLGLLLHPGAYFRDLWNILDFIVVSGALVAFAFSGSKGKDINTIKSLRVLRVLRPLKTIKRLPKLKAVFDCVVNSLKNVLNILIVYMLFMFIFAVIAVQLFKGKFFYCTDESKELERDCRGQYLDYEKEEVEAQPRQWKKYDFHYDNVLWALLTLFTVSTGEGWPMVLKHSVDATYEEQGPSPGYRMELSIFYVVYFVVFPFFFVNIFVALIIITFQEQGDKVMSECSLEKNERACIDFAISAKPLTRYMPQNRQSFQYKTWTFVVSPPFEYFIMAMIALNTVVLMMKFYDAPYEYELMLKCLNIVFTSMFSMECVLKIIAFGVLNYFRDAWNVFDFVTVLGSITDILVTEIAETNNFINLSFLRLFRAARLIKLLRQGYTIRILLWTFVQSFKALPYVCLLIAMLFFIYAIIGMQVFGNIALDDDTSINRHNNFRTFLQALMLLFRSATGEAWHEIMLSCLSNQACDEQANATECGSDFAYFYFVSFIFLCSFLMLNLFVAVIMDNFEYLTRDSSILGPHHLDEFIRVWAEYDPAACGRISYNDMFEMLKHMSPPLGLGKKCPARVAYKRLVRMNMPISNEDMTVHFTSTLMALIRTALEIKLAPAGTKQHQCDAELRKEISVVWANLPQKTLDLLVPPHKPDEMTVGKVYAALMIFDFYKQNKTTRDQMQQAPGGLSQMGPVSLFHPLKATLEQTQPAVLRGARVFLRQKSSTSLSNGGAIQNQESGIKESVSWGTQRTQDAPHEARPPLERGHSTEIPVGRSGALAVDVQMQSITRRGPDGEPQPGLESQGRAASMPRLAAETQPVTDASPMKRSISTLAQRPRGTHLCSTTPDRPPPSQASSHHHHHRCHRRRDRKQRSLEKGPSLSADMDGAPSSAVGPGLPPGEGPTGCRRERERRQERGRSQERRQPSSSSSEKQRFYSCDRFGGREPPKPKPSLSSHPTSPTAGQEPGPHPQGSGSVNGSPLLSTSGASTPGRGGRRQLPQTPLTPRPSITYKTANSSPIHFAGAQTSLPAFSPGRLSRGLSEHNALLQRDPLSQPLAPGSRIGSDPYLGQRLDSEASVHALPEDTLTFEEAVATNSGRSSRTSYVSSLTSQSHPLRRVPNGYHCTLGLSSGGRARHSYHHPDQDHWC
T1 sequence (P54284 whole entry partner): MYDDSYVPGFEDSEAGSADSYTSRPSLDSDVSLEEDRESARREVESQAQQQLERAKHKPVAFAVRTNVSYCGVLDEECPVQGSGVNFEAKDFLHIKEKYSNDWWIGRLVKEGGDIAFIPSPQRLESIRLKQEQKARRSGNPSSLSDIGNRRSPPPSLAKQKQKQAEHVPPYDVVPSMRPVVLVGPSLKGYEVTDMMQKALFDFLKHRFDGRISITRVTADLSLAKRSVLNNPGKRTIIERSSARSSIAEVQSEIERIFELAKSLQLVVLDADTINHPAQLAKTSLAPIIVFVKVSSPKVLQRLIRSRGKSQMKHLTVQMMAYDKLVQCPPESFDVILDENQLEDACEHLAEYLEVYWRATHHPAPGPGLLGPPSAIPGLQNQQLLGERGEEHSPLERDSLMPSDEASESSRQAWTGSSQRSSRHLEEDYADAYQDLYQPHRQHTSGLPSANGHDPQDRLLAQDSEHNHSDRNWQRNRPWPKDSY
T1 sequence (P54289 25-956 partner limits assumed): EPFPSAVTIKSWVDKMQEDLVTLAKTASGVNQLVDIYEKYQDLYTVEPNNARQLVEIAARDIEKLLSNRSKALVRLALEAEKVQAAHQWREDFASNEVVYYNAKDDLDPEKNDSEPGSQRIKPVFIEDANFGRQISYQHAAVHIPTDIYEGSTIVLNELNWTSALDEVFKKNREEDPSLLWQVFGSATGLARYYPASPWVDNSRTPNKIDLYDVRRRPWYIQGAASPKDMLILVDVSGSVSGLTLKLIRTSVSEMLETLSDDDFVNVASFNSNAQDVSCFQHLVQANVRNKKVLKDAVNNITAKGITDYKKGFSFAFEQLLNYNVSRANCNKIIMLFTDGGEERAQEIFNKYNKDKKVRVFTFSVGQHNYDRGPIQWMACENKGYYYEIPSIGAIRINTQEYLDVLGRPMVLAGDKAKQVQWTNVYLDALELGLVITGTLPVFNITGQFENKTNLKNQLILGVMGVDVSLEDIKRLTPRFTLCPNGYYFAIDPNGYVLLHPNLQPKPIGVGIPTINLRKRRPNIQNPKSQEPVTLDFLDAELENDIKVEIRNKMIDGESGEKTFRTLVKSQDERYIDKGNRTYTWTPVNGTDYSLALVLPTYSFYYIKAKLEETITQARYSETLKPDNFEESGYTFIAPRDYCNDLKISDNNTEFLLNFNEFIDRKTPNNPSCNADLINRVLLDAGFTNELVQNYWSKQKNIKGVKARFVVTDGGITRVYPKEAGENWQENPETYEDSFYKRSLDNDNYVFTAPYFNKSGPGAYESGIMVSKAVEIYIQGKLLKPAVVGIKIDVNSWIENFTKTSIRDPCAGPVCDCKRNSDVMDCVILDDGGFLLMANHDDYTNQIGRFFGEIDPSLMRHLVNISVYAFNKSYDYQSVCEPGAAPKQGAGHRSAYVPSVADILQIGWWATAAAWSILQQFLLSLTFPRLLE
T1 sequence (P54289 957-1103 partner limits assumed): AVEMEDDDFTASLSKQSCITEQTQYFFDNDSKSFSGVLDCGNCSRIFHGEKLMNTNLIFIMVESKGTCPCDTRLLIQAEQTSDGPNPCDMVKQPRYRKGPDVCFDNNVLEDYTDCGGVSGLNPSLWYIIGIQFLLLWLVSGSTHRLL

Consider `CN[C@@H](CC(C)C)C(=O)N1CCC(N(C2CC2)S(=O)(=O)c2cccc(C#N)c2)CC1` [(2S) N-cyclopropyl-N-[1-(4-methyl-2-methylaminopentanoyl)-piperidin-4-yl]-3-cyanobenzenesulfonamide], for which the pIC50 is 5.37.

Consider `CN[C@@H](CC(C)C)C(=O)N1CCC(N(CCOC)S(=O)(=O)c2cccc(C(F)(F)F)c2)CC1` [(2S) N-(2-methoxyethyl)-N-[1-(4-methyl-2-methylaminopentanoyl)-piperidin-4-yl]-3-trifluoromethylbenzenesulfonamide], for which the pIC50 was 5.91.

Take `NC1(C(=O)N2CCC(N(C3CC3)S(=O)(=O)c3cccc(C(F)(F)F)c3)CC2)CCCC1` [N-[1-(1-Aminocyclopentan-1-carbonyl)piperidin-4-yl]-N-cyclopropyl-3-trifluoromethylbenzenesulfonamide]: the pIC50 is 5.97.

`CN[C@@H](CC(C)C)C(=O)N1CCC(N(C2CC2)S(=O)(=O)c2cccc(Cl)c2)CC1` [(2S) N-cyclopropyl-N-[1-(4-methyl-2-methylaminopentanoyl)-piperidin-4-yl]-3-chlorobenzenesulfonamide]: the pIC50 is 5.58.

Regarding `CN[C@@H](CC(C)C)C(=O)N1CCC(N(C[C@@H]2CCCO2)S(=O)(=O)c2cccc(C(F)(F)F)c2)CC1` [(2S) N-[1-(4-methyl-2-methylaminopentanoyl)piperidin-4-yl]-N-(tetrahydrofuran-2-yl)methyl-3-trifluoromethylbenzenesulfonamide], the pIC50 is 5.30.

On to `CN[C@@H](CC(C)C)C(=O)N1CCC(N(C2CC2)S(=O)(=O)c2cccc(C)c2)CC1` [(2S) N-cyclopropyl-N-[1-(4-methyl-2-methylaminopentanoyl)-piperidin-4-yl]-3-methylbenzenesulfonamide], for which the pIC50 is 5.08.

As to `CN1CCCC1C(=O)N1CCC(N(C2CC2)S(=O)(=O)c2cccc(C(F)(F)F)c2)CC1` (stereo not shown) [N-Cyclopropyl-N-[1-(N-methylpyrrolidin-2-carbonyl)piperidin-4-yl]-3-trifluoromethylbenzenesulfonamide], the pIC50 is 5.86.

For the molecule `CN[C@@H](CC(C)C)C(=O)N1CCC(N(CCC(C)C)S(=O)(=O)c2cccc(C(F)(F)F)c2)CC1` [(2S) N-i-pentyl-N-[1-(4-methyl-2-methylaminopentanoyl)piperidin-4-yl]-3-trifluoromethylbenzenesulfonamide], the pIC50 was 5.90.

As to `O=C(CCC(=O)N1CCC(N(C2CC2)S(=O)(=O)c2ccccc2)CC1)c1ccc(F)cc1` [N-cyclopropyl-N-{1-[4-(4-fluorophenyl)-4-oxobutanoyl]piperidin-4-yl}benzenesulfonamide], the pIC50 was 5.21.

With `CN[C@@H](CC(C)C)C(=O)N1CCC(N(C2CC2)S(=O)(=O)c2cccc(OC)c2)CC1` [(2S) N-cyclopropyl-N-[1-(4-methyl-2-methylaminopentanoyl)-piperidin-4-yl]-3-methoxybenzenesulfonamide], the pIC50 was 5.14.

As to `CN[C@@H](CC(C)C)C(=O)N1CCC(N(C2CCCC2)S(=O)(=O)c2cccc(C(F)(F)F)c2)CC1` [(2S) N-Cyclopentyl-N-[1-(4-methyl-2-methylamino-pentanoyl)piperidin-4-yl]-3-trifluoromethylbenzenesulfonamide fumarate], the pIC50 was 5.81.

Regarding `CN[C@@H](CC(C)C)C(=O)N1CCC(N(C2CC2)S(=O)(=O)c2cccc(OC(F)F)c2)CC1` [(2S) N-Cyclopropyl-N-[1-(4-methyl-2-methylaminopentanoyl)-piperidin-4-yl]-3-difluoromethoxybenzenesulfonamide], the pIC50 was 5.61.

For `CCCC=CC(=O)N1CCC(N(C2CC2)S(=O)(=O)c2cccc(C(F)(F)F)c2)CC1` [N-Cyclopropyl-N-(1-hex-2-enoyl-piperidin-4-yl)-3-trifluoromethylbenzenesulfonamide], the pIC50 is 5.92.

On to `O=C(C1Cc2ccccc2CN1)N1CCC(N(C2CC2)S(=O)(=O)c2cccc(C(F)(F)F)c2)CC1` (stereo not shown) [N-Cyclopropyl-N-[1-(1,2,3,4-tetrahydroisoquinolin-3-carbonyl)piperidin-4-yl]-3-trifluoromethylbenzenesulfonamide], for which the negative logarithm of the IC50 (pIC50) is 5.80.

Consider `CN[C@@H](CC(C)C)C(=O)N1CCC(N(C2CC2)S(=O)(=O)c2cccc([N+](=O)[O-])c2)CC1` [(2S) N-cyclopropyl-N-[1-(4-methyl-2-methylaminopentanoyl)-piperidin-4-yl]-3-nitrobenzenesulfonamide], for which the pIC50 is 5.44.

For `CN[C@@H](CC(C)C)C(=O)N1CCC(N(CCO)S(=O)(=O)c2cccc(C(F)(F)F)c2)CC1` [(2S) N-(2-Hydroxyethyl)-N-[1-(4-methyl-2-methylamino-pentanoyl)piperidin-4-yl]-3-trifluoromethylbenzenesulfonamide hydrochloride], the pIC50 is 5.65.

Regarding `CN[C@@H](CC(C)C)C(=O)N1CCC(N(C2CC2)S(=O)(=O)c2cccc(F)c2)CC1` [(2S) N-cyclopropyl-N-[1-(4-methyl-2-methylaminopentanoyl)-piperidin-4-yl]-3-fluorobenzenesulfonamide], the pIC50 is 5.33.

On to `CN[C@@H](CC(C)C)C(=O)N1CCC(N(C2CCOC2)S(=O)(=O)c2cccc(C(F)(F)F)c2)CC1` (stereo partly drawn) [(2S) N-[1-(4-Methyl-2-methylaminopentanoyl)piperidin-4-yl]-N-(tetrahydrofuran-3-yl)-3-trifluoromethylbenzenesulfonamide fumarate], for which the pIC50 is 5.74.

On to `CN[C@@H](CC(C)C)C(=O)N1CCC(N(CC2CC2)S(=O)(=O)c2cccc(C(F)(F)F)c2)CC1` [(2S) N-Cyclopropylmethyl-N-[1-(4-methyl-2-methylamino-pentanoyl)piperidin-4-yl]-3-trifluoromethylbenzenesulfonamide fumarate], for which the negative-log IC50 (pIC50) is 5.88.

Usually pIC50 stands for −log10 of the IC50, conventionally taken in molar units.

(Values after US9000174B2, “4-phenylsulfonamidopiperidines as calcium channel blockers” (Purdue Pharma L.P., priority 2004, dated 2015).)
